Molecular target: T1, HMG-CoA reductase (Rattus norvegicus, UniProt P51639)
T1 construct: from tissue; inferred from the cited J. Med. Chem. 1985, 28, 347
T1 sequence (P51639 1-887): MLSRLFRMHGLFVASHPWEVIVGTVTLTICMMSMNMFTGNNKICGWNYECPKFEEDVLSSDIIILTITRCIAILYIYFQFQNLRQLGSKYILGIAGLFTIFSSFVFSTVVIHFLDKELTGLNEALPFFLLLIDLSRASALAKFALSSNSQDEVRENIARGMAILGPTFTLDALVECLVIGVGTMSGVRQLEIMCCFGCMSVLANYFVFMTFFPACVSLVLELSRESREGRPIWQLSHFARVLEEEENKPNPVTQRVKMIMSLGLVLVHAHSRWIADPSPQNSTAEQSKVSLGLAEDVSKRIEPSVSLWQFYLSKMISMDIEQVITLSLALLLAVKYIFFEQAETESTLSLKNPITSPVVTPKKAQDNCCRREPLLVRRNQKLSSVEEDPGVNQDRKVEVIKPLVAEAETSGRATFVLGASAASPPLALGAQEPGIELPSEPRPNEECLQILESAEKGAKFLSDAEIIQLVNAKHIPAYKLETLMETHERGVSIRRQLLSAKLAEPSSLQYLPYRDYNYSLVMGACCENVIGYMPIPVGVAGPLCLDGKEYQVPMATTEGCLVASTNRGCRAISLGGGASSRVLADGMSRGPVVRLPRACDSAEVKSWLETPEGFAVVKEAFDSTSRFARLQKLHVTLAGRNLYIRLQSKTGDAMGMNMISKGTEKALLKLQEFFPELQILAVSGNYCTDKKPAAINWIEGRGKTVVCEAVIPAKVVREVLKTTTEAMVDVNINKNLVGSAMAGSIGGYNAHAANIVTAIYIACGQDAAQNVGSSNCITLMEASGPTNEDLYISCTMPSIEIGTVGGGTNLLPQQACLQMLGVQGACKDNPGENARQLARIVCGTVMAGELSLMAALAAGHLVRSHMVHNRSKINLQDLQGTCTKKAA
Test: intrinsic HMG-CoA reductase inhibition activity, in vitro protocol of J. Med. Chem., 1985, 28, page 347
Assay type: biochemical
Details: tested as the potassium salt
Protocol: The intrinsic HMG-CoA reductase inhibition activity of the claimed compounds is measured in the in vitro protocol described is J. Med. Chem., 1985, 28, page 347.

## C[C@@H]1CC[C@H]2C(=CC(O)[C@H](C)[C@@H]2CC[C@@H](O)C[C@@H](O)CC(=O)O)C1 (stereo partly shown)
  IC50: 5.87 µM
